The text below walks through data of patent US8211929B2, “Pyrimidine derivatives as kinase modulators and method of use” (Exelixis, Inc., priority 2004, dated 2012).

Each structure is given as a SMILES string. Some results are limits rather than exact numbers.

In experiment [1] the target is T1, IGF 3P (Homo sapiens, UniProt P08069).
T1 construct: human IGF1R kinase domain residues M954-C1367; made in house; host or cells: baculovirus expression (insect cells)
The experiment is described as follows: IGF1R kinase assay (LCCA), IGF 3P. The format is biochemical. The conditions noted are these: IGF1R kinase LCCA assay. The method, then: (§1) Kinase activity and compound inhibition are investigated using one or more of the three assay formats described below. The ATP concentrations for each assay are selected to be close to the Michaelis-Menten constant (KM) for each individual kinase. Dose-response experiments are performed at 10 different inhibitor concentrations in a 384-well plate format. […] Y=Min+(Max−Min)/(1+(X/IC50)^H) Equation (2)
(§2) IGF1R kinase biochemical activity was assessed using a Luciferase-Coupled Chemiluminescent Kinase assay (LCCA) format. Kinase activity was measured as the percent ATP remaining following the kinase reaction. Remaining ATP was detected by luciferase-luciferin-coupled chemiluminescence. Specifically, the reaction was initiated by mixing test compounds, 3 μM ATP, 4 μM poly EY peptide and 4 nM IGF1R (baculovirus expressed human IGF1R kinase domain residues M954-C1367) in a 20 uL assay buffer (20 mM Tris-HCL pH7.5, 10 mM MgCl2, 0.02% Triton X-100, 1 mM DTT, 2 mM MnCl2). The mixture is incubated at ambient temperature for 2 hours after which 20 uL luciferase-luciferin mix is added and the chemiluminescent signal read using a Wallac Victor^2 reader.

Experiment [2] has as its target T2, (Homo sapiens, UniProt P08069).
T2 construct: human IGF1R kinase domain residues M954-C1367; made in house; host or cells: baculovirus expression (insect cells)
The experiment is described as follows: IGF1R kinase assay (LCCA), IGF 0P. The format is biochemical. Conditions: IGF1R kinase LCCA assay. How it is done: as §1, §2

T2 sequence (P08069 954-1367): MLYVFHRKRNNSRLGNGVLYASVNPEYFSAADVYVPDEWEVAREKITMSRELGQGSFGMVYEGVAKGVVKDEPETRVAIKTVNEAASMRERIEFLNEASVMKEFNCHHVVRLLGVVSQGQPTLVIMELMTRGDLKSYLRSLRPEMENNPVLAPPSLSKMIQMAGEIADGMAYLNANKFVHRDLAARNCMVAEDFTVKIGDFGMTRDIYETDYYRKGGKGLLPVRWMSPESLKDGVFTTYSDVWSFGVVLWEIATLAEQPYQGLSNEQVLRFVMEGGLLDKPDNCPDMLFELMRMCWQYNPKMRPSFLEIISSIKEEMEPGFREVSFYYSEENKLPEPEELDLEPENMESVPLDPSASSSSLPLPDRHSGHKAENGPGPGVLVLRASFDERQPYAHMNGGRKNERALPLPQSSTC
T1 sequence (P08069 954-1367): as above

As to `CC(C)c1cc(Nc2nc(NCc3cc(-c4ccccc4)no3)ncc2Br)[nH]n1` [Example 10], the 50% inhibitory concentration (IC50) in experiment [1] and in experiment [2] was 50 to 500 nM in each case.

As to `c1ccc(-c2cc(CNc3nc(Nc4cc(C5CC5)n[nH]4)cc(N4CCCC4)n3)on2)cc1` [Example 12], the IC50 in experiment [1] and in experiment [2] was 50 to 500 nM each time.

Consider `Brc1cnc(NCc2cc(-c3ccccc3)no2)nc1Nc1cc(C2CC2)[nH]n1` [Example 14], for which the IC50 in experiment [1] and in experiment [2] was 50 to 500 nM in each case.

On to `CC(C)(C)c1cc(Nc2nc(NCc3cc(-c4ccccc4)no3)ncc2Br)n[nH]1` [Example 16], for which the IC50 – broadly, the concentration at which inhibition is half-maximal – in experiment [1] lay in the range of 500 to 5000 nM; in experiment [2] it was 50 to 500 nM.

Consider `Cc1cc(Nc2nc(NCc3cc(-c4ccccc4)no3)ncc2Br)[nH]n1` [Example 19], for which the IC50 in experiment [1] and in experiment [2] was 500 to 5000 nM throughout.

Take `Brc1cnc(NC2CCc3ccccc32)nc1Nc1cc(C2CC2)[nH]n1` (stereo not shown) [Example 25]: the IC50 in experiment [1] was in the range of 500 to 5000 nM; in experiment [2], 50 to 500 nM.

As to `Brc1cnc(NC2CCCc3ccccc32)nc1Nc1cc(C2CC2)[nH]n1` (stereo not shown) [Example 34], the IC50 in experiment [1] lay within 500 to 5000 nM; in experiment [2], 50 to 500 nM.

For `CN(C)C(=O)Oc1cccc(Nc2ncc(Br)c(Nc3cc(C4CC4)n[nH]3)n2)c1` [Example 35], the IC50 in experiment [1] and in experiment [2] was 50 to 500 nM in each case.

In the case of `CN1CCN(C(=O)Cc2ccc(Nc3ncc(Br)c(Nc4cc(C5CC5)n[nH]4)n3)cc2)CC1` [Example 37], the values for the IC50 in experiment [1] and in experiment [2] were 50 to 500 nM and 500 to 5000 nM, respectively.

On to `CCN(CC)CCCNc1cc(Nc2cc(C3CC3)[nH]n2)nc(NCc2cc(-c3ccccc3)no2)n1` [Example 42], for which the half-inhibitory concentration (IC50) in experiment [1] was less than 50 nM; in experiment [2], 50 to 500 nM.

For the compound `CCN(CC)CCNc1cc(Nc2cc(C3CC3)[nH]n2)nc(NCc2cc(-c3ccccc3)no2)n1` [Example 45], the IC50 in experiment [1] and in experiment [2] was less than 50 nM each time.

Take `Cc1cc(Nc2cc(C3CC3)n[nH]2)nc(Nc2ccc3cc(C(=O)NCCN4CCCC4)ccc3c2)n1` [Example 49]: the values for the IC50 in experiment [1] and in experiment [2] were less than 50 nM and 50 to 500 nM, respectively.

Take `Cc1cc(Nc2cc(C3CC3)[nH]n2)nc(NCc2cc(C(C)C)no2)n1` [Example 50]: the concentration for half-maximal inhibition (IC50) in experiment [1] was less than 50 nM; in experiment [2] it was 500 to 5000 nM.

Consider `Cc1cc(Nc2cc(C3CC3)n[nH]2)nc(Nc2ccc(CCC(=O)NCCCN3CCCCC3)cc2)n1` [Example 51], for which the IC50 in experiment [1] is less than 50 nM; in experiment [2] it was greater than 5000 nM.

For the compound `COc1cc(Nc2ncc(Br)c(Nc3cc(C)on3)n2)cc(OC)c1` [Example 53], the IC50 was less than 50 nM in experiment [1] and 50 to 500 nM in experiment [2].

For `CC(=O)Nc1ccc(Cl)c(Nc2ncc(Br)c(Nc3cc(C)on3)n2)c1` [Example 57], the IC50 in experiment [1] is less than 50 nM; in experiment [2], 500 to 5000 nM.

For `CCN(CC)CCNC(=O)CCc1ccc(Nc2ncc(Br)c(Nc3cc(C)on3)n2)cc1` [Example 58], the IC50 was less than 50 nM in experiment [1] (IGF 3P) and 500 to 5000 nM in experiment [2] (IGF 0P).

Turning to `CCN(CC)CCNC(=O)c1ccc2cc(Nc3nc(C)cc(Nc4cc(C5CC5)n[nH]4)n3)ccc2c1` [Example 59], the IC50 in experiment [1] is less than 50 nM; in experiment [2], 50 to 500 nM.

In the case of `CC(C)c1cc(CNc2ncc(Br)c(Nc3cc(C4CC4)[nH]n3)n2)on1` [Example 65], the IC50 in experiment [1] was less than 50 nM; in experiment [2], 500 to 5000 nM.

In the case of `CCN(CC)CCCNc1nc(Nc2ccccc2Cl)nc(Nc2cc(C3CC3)n[nH]2)c1Cl` [Example 66], the values for the 50% inhibitory concentration (IC50) in experiment [1] and in experiment [2] were less than 50 nM and 50 to 500 nM, respectively.

With `Brc1cc(CNc2ncc(Br)c(Nc3cc(C4CC4)[nH]n3)n2)on1` [Example 72], the IC50 in experiment [1] fell in the range of 50 to 500 nM; in experiment [2] it was 500 to 5000 nM.

Take `CN(C)C(=O)CCc1ccc(Nc2ncc(Br)c(Nc3cc(C4CC4)n[nH]3)n2)cc1` [Example 76]: the IC50 in experiment [1] and in experiment [2] was 50 to 500 nM in each case.

Consider `Brc1cnc(Nc2ccc(N3CCOCC3)cc2)nc1Nc1cc(-c2ccco2)[nH]n1` [Example 80], for which the IC50 in experiment [1] and in experiment [2] was 50 to 500 nM each time.
